Data taken from patent publication US10538490B2, “Benzylaminopyridylcyclopropanecarboxylic acids, pharmaceutical compositions and uses thereof” (Boehringer Ingelheim International GmbH, priority 2016, dated 2020).
pEC50: −log10 of the molar value. Converted amounts (≈) assume the structure as drawn.

How the values were obtained:
[1] = Aqueous solubility in buffer versus acetonitrile/water (1/1), LC-UV; type: physicochemical; settings: kinetic from dmso stock, buffer pH 2.2, 24 h shaking, 2.5% DMSO, ">" if more than 90% dissolved
Procedure: The aqueous solubility of the compounds of the invention is determined by comparing the amount dissolved in buffer to the amount in an acetonitrile/water (1/1) solution. Starting from a 10 mM DMSO stock solution aliquots are diluted with acetonitrile/water (1/1) or buffer, respectively. After 24 h of shaking, the solutions are filtrated and analyzed by LC-UV. The amount dissolved in buffer is compared to the amount in the acetonitrile solution.
Solubility is usually being measured from 0.001 to 0.125 mg/mL at a DMSO concentration of 2.5%. If more than 90% of the compound is dissolved in buffer, the value is marked with “>”.

[2] = target: human GPR40 receptor (Homo sapiens, UniProt O14842); test: IP1 accumulation measurements using the IPOne assay system; type: cell-based; settings: 1321N1 cells stably expressing human GPR40 receptor, stimulation 1 h at 37° C.
Sequence of human GPR40 receptor (O14842 whole entry): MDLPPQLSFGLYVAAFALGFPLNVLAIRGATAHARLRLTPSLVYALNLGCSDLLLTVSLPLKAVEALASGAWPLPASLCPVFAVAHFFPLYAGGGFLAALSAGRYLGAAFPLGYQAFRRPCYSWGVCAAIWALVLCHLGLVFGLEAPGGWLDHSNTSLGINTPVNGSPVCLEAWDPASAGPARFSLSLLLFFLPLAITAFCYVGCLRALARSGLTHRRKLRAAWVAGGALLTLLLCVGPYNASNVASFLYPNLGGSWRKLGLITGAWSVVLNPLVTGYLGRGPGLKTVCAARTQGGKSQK
Procedure: IP1 accumulation measurements using the IPOne assay system—1321N1 cells stably expressing human GPR40 receptor (Euroscreen, Belgium) are seeded 24 h before the assay in white 384-well plates in culture medium containing 10% FCS, 1% Na-Pyruvate and 400 μg/mL G418. IPi is assayed according to the manufacturer's description (Cisbio Bioassays, France). In brief, the assay is started by substitution of the culture medium by stimulation buffer (Hepes 10 mM, CaCl2 1 mM, MgCl2 0.5 mM, KCl 4.2 mM, NaCl 146 mM, glucose 5.5 mM and LiCl 50 mM, pH 7.4). Cells are stimulated for 1 h at 37° C., 5% CO2 by addition of the compounds that are diluted in stimulation buffer containing LiCl. Assays are stopped by adding HTRF-conjugates (IP1-d2 and Anti-IP1 cryptate Tb) and lysis buffer, provided by the manufacturer. After an incubation time of 1 h at room temperature plates are measured using an EnVision™, Perkin Elmer. The obtained fluorescence ratios at 665/615 […] are then used to calculate the pEC50 values using Assay Explorer 3.3 Software (Accelrys, Inc.) by interpolation using an IP1 reference curve and subsequent sigmoidal curve fitting allowing for a variable hill slope.

[3] = Chemical stability (degradation kinetics) at pH value of ca. 1.2; type: physicochemical; settings: pH value of ca. 1.2 (acetonitrile/0.1 M aqueous HCl 2:3), 37° C., HPLC
Procedure: Degradation kinetics is used to simulate chemical stability of compounds in the acidic part of the gastro intestinal tract. […] Their application as medical drugs to treat human diseases is therefore less restricted and troublesome.
The chemical stability of the compounds of the invention at pH value of ca. 1.2 is determined as follows:
Compound is dissolved in an HPLC vial either in a mixture of acetonitrile/0.1 M aqueous HCl (2:3; pH ca. 1.2) or in a mixture of acetonitrile/Mcllvaine buffer pH 7.4 (2:3) to get a concentration of approximately 0.25 mg/ml. The vial was then transferred into an HPLC autosampler system and maintained at a temperature of 37° C. A first sample is taken and injected immediately into a standard HPLC system with a UV DAD detector. Further samples are injected after 2, 4, 6, 8 and 10 hours. Amount of degraded compound is measured by determining the recovery rate of compound [%] for each injection using an HPLC standard gradient method. Therefore the peak area of the main peak for the first injection (AUt0) is determined and set as 100%. Peak area of the main peak is determined also for the further injections (AUtn, n=2, 4, 6, 8, 10) and expressed as fraction of […] [%].

| SMILES | solubility at 24 h [1] | pEC50 [2] | Amount of degradation after 2 h [3] |
| --- | --- | --- | --- |
| Cc1cnc(-c2cc(C)c(-c3ccc(F)c(CNc4ccc([C@H]5C[C@@H]5C(=O)O)cn4)c3)c(C)c2)nc1 [Example 53] | 78 µg/mL (≈ 162 µM) | 7.82 |  |
| Cc1cc(-c2ccnn2C)cc(C)c1-c1cc(CNc2ccc([C@H]3C[C@@H]3C(=O)O)cn2)c(F)cc1F [Example 92] | 103 µg/mL (≈ 211 µM) | 7.80 |  |
| COc1cc(OC)c(-c2ccc(F)c(CNc3ccc([C@H]4C[C@@H]4C(=O)O)cn3)c2)c(OC)c1 [Example 30] | 112 µg/mL (≈ 248 µM) | 6.06 |  |
| Cc1cc(C#N)cc(C)c1-c1ccc(F)c(CNc2ccc([C@H]3C[C@@H]3C(=O)O)cn2)c1 [Example 35] | 86 µg/mL (≈ 207 µM) | 6.86 |  |
| Cc1cc(OCC2(O)CCOCC2)cc(C)c1-c1ccc(F)c(CNc2ccc([C@H]3C[C@@H]3C(=O)O)cn2)c1 [Example 55] | 122 µg/mL (≈ 234 µM) | 6.66 |  |
| Cc1cc(O[C@@H]2CCOC2)cc(C)c1-c1cc(CNc2ccc([C@H]3C[C@@H]3C(=O)O)cn2)c(F)cc1F [Example 80] | 106 µg/mL (≈ 214 µM) | 7.23 |  |
| Cc1cc(OC2CCOCC2)cc(C)c1-c1ccc(F)c(CNc2ccc([C@H]3C[C@@H]3C(=O)O)cn2)c1 [Example 42] | 87 µg/mL (≈ 177 µM) | 7.00 |  |
| Cc1cc(-c2cc(=O)n(C)cn2)cc(C)c1-c1ccc(F)c(CNc2ccc([C@H]3C[C@@H]3C(=O)O)cn2)c1 [Example 43] | 107 µg/mL (≈ 215 µM) | 7.27 |  |
| Cc1ccc(Cl)c(-c2ccc(F)c(CNc3ccc([C@H]4C[C@@H]4C(=O)O)cn3)c2)c1Cl [Example 25] | 83 µg/mL (≈ 186 µM) | 7.39 |  |
| Cc1cc(-c2nnn(C)n2)cc(C)c1-c1cc(CNc2ccc([C@H]3C[C@@H]3C(=O)O)cn2)c(F)cc1F [Example 90] | 89 µg/mL (≈ 181 µM) | 8.10 |  |
| Cc1cc(OCCC(C)(C)O)cc(C)c1-c1ccc(F)c(CNc2ccc([C@H]3C[C@@H]3C(=O)O)cn2)c1 [Example 1] | 87 µg/mL (≈ 177 µM) | 7.35 |  |
| Cc1cc(O[C@H]2CCOC2)cc(C)c1-c1ccc(F)c(CNc2ccc([C@H]3C[C@@H]3C(=O)O)cn2)c1 [Example 38] | 99 µg/mL (≈ 208 µM) | 7.03 |  |
| O=C(O)[C@H]1C[C@@H]1c1ccc(NCc2ccc(C(F)(F)F)c(-c3ccc(OCC4CC4)cc3)c2)nc1 [Example 7, (1S,2S)-2-{6-[(4′-Cyclopropylmethoxy-6-trifluoromethyl-biphenyl-3-ylmethyl)-amino]-pyridin-3-yl}-cyclopropanecarboxylic acid] | 30 µg/mL (≈ 62.2 µM) | 7.47 |  |
| Cc1cnc(-c2cc(C)c(-c3cc(CNc4ccc([C@H]5C[C@@H]5C(=O)O)cn4)c(F)cc3F)c(C)c2)nc1 [Example 95] | 88 µg/mL (≈ 176 µM) | 7.96 |  |
| COc1cc(C)c(-c2ccc(F)c(CNc3ccc([C@H]4C[C@@H]4C(=O)O)cn3)c2)c(C)c1 [Example 26] | 91 µg/mL (≈ 216 µM) | 7.10 |  |
| Cc1cc(OCC2(O)CCOCC2)cc(C)c1-c1cc(CNc2ccc([C@H]3C[C@@H]3C(=O)O)cn2)c(F)cc1F [Example 97] | 123 µg/mL (≈ 228 µM) | 6.72 |  |
| Cc1cc(-c2nnn(C)n2)cc(C)c1-c1ccc(F)c2c1CC[C@H]2Oc1ccc([C@H]2C[C@@H]2C(=O)O)cc1 [WO 2013/178575 Example 45, reference compound] | < 1 µg/mL |  |  |
| COc1cc(C)c(-c2cc(CNc3ccc([C@H]4C[C@@H]4C(=O)O)cn3)c(F)cc2F)c(C)c1 [Example 68] | > 120 µg/mL | 7.23 |  |
| Cc1cccc(C)c1-c1ccc(F)c(CNc2ccc([C@H]3C[C@@H]3C(=O)O)cn2)c1 [Example 18] | > 120 µg/mL | 6.88 | <0.5% |
| Cc1cc(OCCC(C)(C)O)cc(C)c1-c1ccc(F)c2c1CC[C@H]2Oc1ccc([C@H]2C[C@@H]2C(=O)O)cc1 [WO 2013/178575 Example 17, reference compound] | < 1 µg/mL |  | 8% |

| SMILES | solubility at 24 h [1] | pEC50 [2] | Amount of degradation after 2 h [3] |
| --- | --- | --- | --- |
| Cc1ccc(Cl)c(-c2cc(CNc3ccc([C@H]4C[C@@H]4C(=O)O)cn3)c(F)cc2F)c1Cl [Example 67] | 84 µg/mL (≈ 181 µM) | 7.51 |  |
| Cc1cc(C#N)cc(C)c1-c1cc(CNc2ccc([C@H]3C[C@@H]3C(=O)O)cn2)c(F)cc1F [Example 77] | 97 µg/mL (≈ 224 µM) | 7.08 |  |
| CC(C)(O)CCOc1ccc(-c2cc(CNc3ccc([C@H]4C[C@@H]4C(=O)O)cn3)ccc2C(F)(F)F)cc1 [Example 4, (1S,2S)-2-(6-{[4′-(3-Hydroxy-3-methyl-butoxy)-6-trifluoromethyl-biphenyl-3-ylmethyl]-amino}-pyridin-3-yl)-cyclopropanecarboxylic Acid] | 92 µg/mL (≈ 179 µM) | 7.82 | <0.5% |
| Cc1c(C#N)cccc1-c1ccc(F)c2c1CC[C@H]2Oc1ccc([C@H]2C[C@@H]2C(=O)O)cc1 [WO 2013/178575 Example 54, reference compound] | < 1 µg/mL |  | 2.5% |
| Cc1cccc(C)c1-c1cc(CNc2ccc([C@H]3C[C@@H]3C(=O)O)cn2)c(F)cc1F [Example 61] | 42 µg/mL (≈ 103 µM) | 7.44 |  |
| CCc1cccc(CC)c1-c1cc(CNc2ccc([C@H]3C[C@@H]3C(=O)O)cn2)c(F)cc1F [Example 93] | 82 µg/mL (≈ 188 µM) | 7.14 |  |
| Cc1cccc(C)c1-c1ccc(F)c2c1CC[C@H]2Oc1ccc(C2CC2C(=O)O)cc1 (stereo partly shown) [WO 2013/178575 Example 33] |  |  | 8% |
| Cc1cc(C(=O)N(C)C)cc(C)c1-c1ccc(F)c(CNc2ccc([C@H]3C[C@@H]3C(=O)O)cn2)c1 [Example 60] |  | 6.26 |  |
| Cc1cc(C(=O)NCC(C)(C)O)cc(C)c1-c1ccc(F)c2c1CC[C@H]2Oc1ccc([C@H]2C[C@@H]2C(=O)O)cc1 [WO 2013/178575 Example 15, reference compound] | < 1 µg/mL |  | 3% |
| Cc1cc(OCC2(C)COC2)cc(C)c1-c1ccc(F)c(CNc2ccc([C@H]3C[C@@H]3C(=O)O)cn2)c1 [Example 45] |  | 6.83 |  |
| Cc1cc(-c2ccc(=O)n(C)c2)cc(C)c1-c1ccc(F)c(CNc2ccc([C@H]3C[C@@H]3C(=O)O)cn2)c1 [Example 13] |  | 7.77 |  |
| COc1cc(-c2cc(C)c(-c3cc(CNc4ccc([C@H]5C[C@@H]5C(=O)O)cn4)c(F)cc3F)c(C)c2)ccn1 [Example 99] | 97 µg/mL (≈ 188 µM) | 8.10 |  |
| O=C(O)[C@H]1C[C@@H]1c1ccc(NCc2cc(-c3c(C(F)(F)F)cccc3C(F)(F)F)ccc2F)nc1 [Example 21] |  | 6.08 |  |
| Cc1cc(OCCC(C)(C)O)cc(C)c1-c1cc(CNc2ccc([C@H]3C[C@@H]3C(=O)O)cn2)c(F)cc1F [Example 2] | 83 µg/mL (≈ 163 µM) | 7.38 |  |
| Cc1cc(OCCCS(C)(=O)=O)cc(C)c1-c1ccc(F)c2c1CC[C@H]2Oc1ccc([C@H]2C[C@@H]2C(=O)O)cc1 [WO 2013/178575 Example 11] |  |  | 5% |
| NCc1ccc(F)c(-c2cc(CNc3ccc([C@H]4C[C@@H]4C(=O)O)cn3)c(F)cc2F)c1 [Example 3, (1S,2S)-2-{6-[(5′-Aminomethyl-4,6,2′-trifluoro-biphenyl-3-ylmethyl)-amino]-pyridin-3-yl}-cyclopropanecarboxylic Acid] |  | < 5.00 |  |
| CC(C)c1ccccc1-c1cc(CNc2ccc([C@H]3C[C@@H]3C(=O)O)cn2)c(F)cc1F [Example 96] |  | 6.94 |  |
| COc1cc(OC)c(F)c(-c2cc(CNc3ccc([C@H]4C[C@@H]4C(=O)O)cn3)c(F)cc2F)c1F [Example 94] |  | 5.88 |  |
| COc1cc(F)c(-c2ccc(F)c(CNc3ccc([C@H]4C[C@@H]4C(=O)O)cn3)c2)c(F)c1 [Example 19] |  | 5.68 |  |
| Cc1cc(-c2ccn(C)c(=O)c2)cc(C)c1-c1cc(CNc2ccc([C@H]3C[C@@H]3C(=O)O)cn2)c(F)cc1F [Example 86] |  | 7.54 |  |
